Experimental findings from patent US6548241B1, “Storage solution containing photosensitizer for inactivation of biological contaminants” (Gambro, Inc., priority 2000, dated 2003) are described below.

Converted amounts (≈) assume the structure as drawn. Where two headings read alike, the source gives them in different places.

The format of data set [1] is physicochemical. The conditions noted are these: for solubility thermodynamic at 1 h: thermodynamic from solid.
Procedure: The mixture was agitated at room temperature for one hour and vortex mixed to ensure complete dissolution of the suspended material. […] This suspension was then centrifuged to remove undissolved material. The supernatant from this preparation was removed and analyzed using a spectrophotometer. The absorbance values of the solution were determined at 447 nm and 373 nm. From the extinction coefficients that were determined previously, it was possible to estimate the concentration of the saturated solution Solubility in ACD-A Anticoagulant The same procedure described above was repeated using ACD-A Anticoagulant.
A short description of data set [2]: Photodecomposition in ACD-A upon exposure to UV light (365 nm). The conditions noted are these: for % of Initial, 373 nm / % of Initial, 447 nm: 63 μg/mL in ACD-A, UV 365 nm.
For a further data set, the system named is Staphylococcus aureus. Briefly: Log inactivation of S. aureus in platelet concentrate, irradiation at 80 J/cm^2.
The test system of data set [3] is Staphylococcus epidermidis. Briefly: Log inactivation of S. epidermidis in platelet concentrate, irradiation at 80 J/cm^2.
Data set [4] concerns herpes simplex virus type II (HSV-II). Description: Inactivation of HSV-II in platelet concentrates at varying photosensitizer concentrations. The conditions noted are these: platelet concentrate, 80 J/cm^2, all three trials.
The test system of the next data set is HSV-II. Description: Inactivation of HSV-II in platelet concentrate and PC:media with ascorbate (log virus titre). The conditions noted are these: 14 μM + 6 mM ascorbate.
In the next data set the test system is Listeria monocytogenes. Briefly: Log inactivation of Listeria monocytogenes in platelet concentrate, cuvette apparatus. Format: cell-based. On the procedure:
Mixtures of platelet concentrates and platelet additive solutions are referred to herein as in “media.” Platelet concentrate without additive solution is referred to herein as in “plasma.” Both were spiked with Listeria monocytogenes. Vitamin K5 was then added to each in the amount of 300 μg/mL […]. Each was then exposed to UV, visible or room light in the cuvette apparatus of FIG. 5 with the results shown in Table 3.

In the case of `Cc1cc2nc3c(=O)[nH]c(=O)nc-3n(C[C@H](O)[C@H](O)[C@H](O)CO)c2cc1C` [7,8-dimethyl-10-ribityl isoalloxazine], the solubility thermodynamic at 1 h in data set [1] (ACD-A Anticoagulant, aqueous buffer, ACD-A Anticoagulant, absorbance at 373 nm, read-out: Concentration (373) of saturated solution) amounted to 63 µg/mL (≈ 167 µM); in data set [1] (ACD-A Anticoagulant, aqueous buffer, ACD-A Anticoagulant, absorbance at 447 nm, read-out: Concentration (447) of saturated solution), 60.3 µg/mL (≈ 160 µM); in data set [1] (Isolyte S media, pH 7.4, saline or isotonic, Isolyte S, pH 7.4 media, room temperature, absorbance at 373 nm, read-out: Concentration (373) of saturated solution), 42 µg/mL (≈ 112 µM); in data set [1] (Isolyte S media, pH 7.4, saline or isotonic, Isolyte S, pH 7.4 media, room temperature, absorbance at 447 nm, read-out: Concentration (447) of saturated solution) it was 40.9 µg/mL (≈ 109 µM). The “Concentration (373) of saturated solution” value in data set [1] (ACD-A Anticoagulant, absorbance at 373 nm) stood at 166 µM; in data set [1] (Isolyte S, pH 7.4 media, room temperature, absorbance at 373 nm), 110 µM. For the same compound, the “Concentration (447) of saturated solution” value in data set [1] (ACD-A Anticoagulant, absorbance at 447 nm) is 160 µM; in data set [1] (Isolyte S, pH 7.4 media, room temperature, absorbance at 447 nm), 109 µM. For the same compound, the “% of Initial, 373 nm” value in data set [2] (Irradiation Time 0) is 100%; in data set [2] (Irradiation Time 5), 87.3%; in data set [2] (Irradiation Time 10), 90.5%; in data set [2] (Irradiation Time 15), 100%. Further, the “% of Initial, 447 nm” value in data set [2] (Irradiation Time 0) was 100%; in data set [2] (Irradiation Time 5), 61.6%; in data set [2] (Irradiation Time 10) it was 76.6%; in data set [2] (Irradiation Time 15), 70%. Further, the “decomposition of the reagent (absorption profile at 373 nm)” value in data set [2] (over the entire irradiation period) is “no significant decomposition”. The “Log Inactivation (cfu/mL)” value in the data set on Staphylococcus aureus (10 μM in platelet concentrate) was 1.9 Logs; in data set [3] (10 μM in platelet concentrate) it was 4.1 Logs. Also, in data set [4], the “inactivation of HSV-II” value is “complete inactivation”. Further, the log virus titre in the data set on HSV-II (30:70 PC:Media (PASIII), UV+VIS 0 J/cm^2, 0.0 Minutes) came out at 5.6; in the data set with HSV-II (30:70 PC:Media, UV+VIS 5 J/cm^2, 1.5 Minutes) it was 2.5; in the data set with HSV-II (30:70 PC:Media, UV+VIS 10 J/cm^2, 3.0 Minutes), 2.5; in the data set with HSV-II (30:70 PC:Media, UV+VIS 15 J/cm^2, 4.5 Minutes), 2.3; in the data set on HSV-II (30:70 PC:Media, UV+VIS 20 J/cm^2, 6.0 Minutes), 1.8; in the data set on HSV-II (30:70 PC:Media, UV+VIS 30 J/cm^2, 9.0 Minutes), 1.6. For the same compound, the log virus titre was 5.6 in the data set with HSV-II (90:10 PC:Media, UV+VIS 0 J/cm^2) and 3.3 in the data set on HSV-II (90:10 PC:Media, UV+VIS 40 J/cm^2).

On to `Cc1cc2nc3[nH]c(=O)[nH]c(=O)c3nc2cc1C` [7-8-dimethyl alloxazine], for which the “Log Inactivation (cfu/mL)” value in the data set on Staphylococcus aureus (7 μM in platelet concentrate) worked out at 1.6 Logs; in data set [3] (7 μM in platelet concentrate) it was 2.9 Logs.

In the case of `Cc1cc(N)c2ccccc2c1O` [K5, Vitamin K5], the “Log Inactivation (cfu/mL)” value was found to be 4.2 Logs in the data set with Listeria monocytogenes (K5 300 μg/mL in Media (20:80 platelet concentrate:Isolyte S), UV 365 nm, 40 J/cm^2); 0 Logs in the data set on Listeria monocytogenes (K5 300 μg/mL in Media, Room Light); 4.2 Logs in the data set with Listeria monocytogenes (K5 300 μg/mL in Media, VIS 419 nm, 40 J/cm^2); 0.1 Logs in the data set with Listeria monocytogenes (K5 300 μg/mL in Plasma (platelet concentrate without additive solution), UV 365 nm, 40 J/cm^2); 0 Logs in the data set with Listeria monocytogenes (K5 300 μg/mL in Plasma, Room Light); 0.1 Logs in the data set on Listeria monocytogenes (K5 300 μg/mL in Plasma, VIS 419 nm, 40 J/cm^2).

With `Cc1cc2nc3c(=O)[nH]c(=O)nc-3n(C[C@H](O)[C@H](O)[C@H](O)COP(=O)(O)O)c2cc1C` [alloxazine mononucleotide], the entries for the “Log Inactivation (cfu/mL)” value (in the data set on Staphylococcus aureus (10 μM in platelet concentrate); in data set [3] (10 μM in platelet concentrate)) were 1.6 Logs and 5.6 Logs, respectively.
